This is an account of results in patent publication US20110311591A1, “Antimicrobial Coating” (SHEFFIELD HALLAM UNIVERSITY, priority 2008, published 2011).

Holding throughout (assay type): cell-based
For one assay, the system named is bacteria. Nature of the assay: Viable count on high temperature (80° C.) dried coating. The conditions noted are these: coat dried at 80° C. How it is done:
The substrate was a standard glass microscope slide sterilized in an autoclave. Three different coatings were tested i) a pure sol-gel coating was used for a control, ii) a 5 mg/ml gentamicin solution mixed with sol-gel to form a 50 μg/ml coating (50 ppm) and a iii) 12.5 mg/ml concentration of gentamicin was made from gentamicin sulphate dissolved directly in the sol-gel to provide a 1.25% gentamicin sol-gel coating. Each coating was applied over the microscope slide using 200 μl of coating per plate, covered in one single coat and left for 24 hrs at room temperature to allow the coat to cure. Four plates were dried at 80° C. for 1 hr achieving a harder coat to determine if the gentamicin coat was still active after high temperature treatment.
To infect the plates with bacteria, a “sloppy agar” was made up from 0.7 g of nutrient agar dissolved in 100 ml of Phosphate buffer saline (PBS) and autoclaved forming a jelly like consistency. After melting, 5 ml of a inoculate L-broth was pipetted in to 100 ml of sloppy agar and mixed with 500 μl of this inoculated agar to be pipetted on to a coated plate forming a drop sitting on top of the coat. The plate was then laid flat into a Petri dish which was then placed in to a sealed, airtight, container with damp tissue paper to keep the sloppy agar in a moist environment to prevent drying out. […]

For assay [1], the system named is coagulase negative Staphylococcus epidermis. Nature of the assay: Growth on agar/gentamicin plate (resistance check). The conditions noted are these: 50 μg per ml. On the procedure: (§1) Each of the bacterium where grown on a nutrient agar plate and an agar/gentamicin plate at a concentration of 50 μg per ml. This ensured the bacterial strains used where not resistant to gentamicin. One colony from the bacteria agar plate was used to inoculate a sterilized L-broth of 1% tryptone, 0.5% yeast extract, 0.5% NaCl, 0.2% glucose and left over night in a shaking incubator at 37° C.

Assay [2] relates to Escherichia coli (W3110, k 12 mutant). Nature of the assay: Growth on agar/gentamicin plate (resistance check). The conditions noted are these: 50 μg per ml. On the procedure:
as §1

Another assay deals with Staphylococcus aureus. The assay is described as follows: Growth on agar/gentamicin plate (resistance check). To be noted: 50 μg per ml. On the procedure:
as §1

gentamicin: the “gentamicin activity and release after high temperature drying of the coat” value in the assay with bacteria was “still active and released”. Besides, the susceptibility to gentamicin entry (in assay [1]; in assay [2]; in the assay with Staphylococcus aureus) was “susceptible” in each case.
